According to the SangsterLogP compilation:

With `Cc1ccc2c(c1)[C@H]1CN(C)CC[C@H]1N2` (relative stereo) as the molecule, how does the logP read?
The logP was 1.6.

Which logP does the source give for `Cc1ccc2c(c1)[C@H]1CN(C)CC[C@H]1N2C(=O)C=Cc1ccccc1` (relative stereo) here?
Its logP is 3.49.

With `CCCCCCCCC(=O)N1c2ccc(C)cc2[C@H]2CN(C)CC[C@H]21` (relative stereo) as the molecule, how does the logP read?
Its logP is 4.41.

Which logP does the source give for `CCCCC(CC)C(=O)N1c2ccc(C)cc2C2CN(C)CCC21` (stereo not given) here?
Its logP is 4.14.

With `CCCCCCCCCCCCCC(=O)N1c2ccc(C)cc2[C@H]2CN(C)CC[C@H]21` (relative stereo) as the molecule, how does the logP read?
Its logP is 6.7.

Which logP does the source give for `CC(=O)N1c2ccc(C)cc2[C@H]2CN(C)CC[C@H]21` (relative stereo) here?
Its logP is 1.25.

For `CCCCCCC(=O)N1c2ccc(C)cc2[C@H]2CN(C)CC[C@H]21` (relative stereo), which logP is on record?
The logP was 3.57.

Which logP does the source give for `CCCCCCCCCCCC(=O)N1c2ccc(C)cc2[C@H]2CN(C)CC[C@H]21` (relative stereo) here?
The logP was 5.66.

Which logP does the source give for `CCCCCCCCCCCCCCCC(=O)N1c2ccc(C)cc2[C@H]2CN(C)CC[C@H]21` (relative stereo) here?
The logP was 7.33.

For `CCCCCCCCCC(=O)N1c2ccc(C)cc2[C@H]2CN(C)CC[C@H]21` (relative stereo), which logP is on record?
The logP was 4.83.
